Values after ≈ are worked out from the molar mass of the structure shown. Values joined by “and” are separate entries in the source; they are usually repeats but may differ in a detail not shown here. Equal values may be shown once. Read-outs that look alike come from different tables or passages of the source. Non-standard residues stand in square brackets, D forms with d. Residues, ends and D or L forms follow the SMILES beside them. Cit = NC(=O)NCCC[C@H](N)C(=O)O; Dap = NC[C@H](N)C(=O)O
Tests used:
[1] = test system: Candida albicans NBIMCC 74; format: cell-based; conditions: for Inhibition zone, C. albicans 74: 20 µL per disc, 24 h
Procedure: (§1) The parent peptide Temporin A and the novel analogs were subjected to tests against model strains Escherichia coli NBIMCC 8785, Bacillus subtilis NBIMCC 3562, Arthrobacter oxydans NBIMCC 9333, Pseudomonas aeruginosa NBIMCC 3700, and Candida albicans NBIMCC 74, for the assessment of their antimicrobial activity. The strains were acquired from the National Bank for Industrial Microorganisms and Cell Cultures (NBIMCC, Bulgaria). The strain E. coli 8785 was cultured in Luria-Bertani broth (LB, HiMedia, Mumbai, India); B. subtilis 3562—in nutrient broth (NB, HiMedia, Mumbai, India); A. oxydans 9333; P. aeruginosa 3700—in meat peptone agar (MPA) medium; and C. albicans 74—in yeast mold (YM) medium. An incubator shaker ES-20/60 (Biosan, Latvia) was used for the cultivation and was set to 30 °C for B. subtilis 3562, A. oxydans 9333, and C. albicans 74; and 37 °C for E. coli 8785 and P. aeruginosa 3700, with a 24 h shaking period at 120 rpm. The microbial cultures were then adjusted to a turbidity of 0.5 McFarland using a Grant-bio DEN-1B densitometer (Grant Instruments, Royston, UK) for further use.
(§2) The disk-diffusion method was used as an additional method, with the aim of determining the percent inhibition of the tested samples against the model strains. Sterile plates with LB/NB/MPA/YM agar medium were inoculated on the surface with 100 μL from each microbial culture and incubated at 30 or 37 °C for 30 min, for the suspension to penetrate the agar. After that, sterile paper discs (HiMedia, Mumbai, India) with a diameter of 6 mm were soaked with 20 µL of the peptide solutions with concentrations of 1.4 mg/mL and 10 mg/mL and placed on the agar surface. Sterile paper discs with 10% EtOH/H2O were used as a negative control, and the corresponding strain antibiotic disks (HiMedia, Mumbai, India)—as a positive control. The incubation of the plate was performed at 30/37 °C for 24 h. The antimicrobial activity was analyzed by measuring the diameter of the inhibition zones in mm. The experiments were conducted in triplicates, and the average values for the percent of inhibition as a correlation between the inhibition zone of the peptides over the inhibition zone of the antibiotic multiplied by 100 were calculated.

[2] = 3T3 NRU cytotoxicity/phototoxicity test; format: cell-based, mouse; conditions: mouse; for CC50: cytotoxicity, no irradiation, BALB 3T3 clone A31, Neutral Red uptake, read-out: Mean CC50 ± SD, −Irr; for CC50 at 24 h: phototoxicity, irradiated 2.4 J/cm^2, BALB 3T3 clone A31, Neutral Red uptake, read-out: Mean CC50 ± SD, +Irr
Procedure: (§3) The cell lines BALB 3T3 (mouse embryonic fibroblasts) and MCF-12F (human breast epithelial cells) were used as models for healthy tissue. The MCF-7 and MDA-MB-231 cell lines were used as in vitro models for luminal A- and basal B-type breast cancer, respectively. Cell lines were obtained from the American Type Cultures Collection (ATCC, Manassas, VA, USA). Cells were cultured in Dulbecco modified Eagle’s medium (DMEM) supplemented with 10% fetal bovine serum (FBS), 100 U/mL penicillin, and 0.1 mg/mL streptomycin (Sigma-Aldrich, Schnelldorf, Germany) in an incubator at 37 °C, 5% CO2 and 95% humidity. Plastic flasks 75 cm^2 (Biologix, Lenexa, KS, USA) were used to grow the cells.
(§4) The cytotoxicity/phototoxicity testing was performed as described by the OECD Guidelines for the Testing of Chemicals, Section 4, Test No. 432: In Vitro 3T3 NRU Phototoxicity Test. BALB 3T3, clone A31 cells were grown in 75 cm^2 tissue culture flasks in DMEM high-glucose (4.5 g/L), 10% FBS, and antibiotics at 37.5 °C, in a humidified atmosphere under 5% CO2. Cells were plated at 1 × 10^4 cells / 100 μL culture medium in each well of 96-well microplates and allowed to adhere for 24 h before treatment with test compounds. Peptides were dissolved in DMSO and diluted with culture medium to working concentrations from 4 to 1000 μM. In phototoxicity tests, 96-well plates were irradiated (+Irr) with a dose of 2.4 J/cm^2 using an artificial solar light simulator Helios-iO (SERIC Ltd., Tokyo, Japan), and the cells were incubated for an additional 24 h. After treatment with a Neutral Red medium, washing, and application of the NR Desorb solution, the absorption was measured on a microplate reader at a wavelength of 540 nm. Cytotoxicity/phototoxicity was expressed as CC50 values (concentrations required for 50% cytotoxicity).

[3] = test system: BALB 3T3 clone A31 cells; assay: 3T3 NRU cytotoxicity/phototoxicity test; format: cell-based, mouse; conditions: PIF = CC50 −Irr/CC50 +Irr; PIF < 2 = not phototoxic
Procedure: as §3, §4

[4] = test system: MCF-12F cells; assay: MTT antiproliferative assay, MCF-12F; format: cell-based, human; conditions: 72 h, non-tumorigenic cell line, read-out: Mean IC50 ± SD, MCF-12F
Procedure: as §3
(§5) The antiproliferative activity testing was performed on cell cultures using the MTT-dye reduction assay. This assay is based on the metabolism of MTT to insoluble formazan by mitochondrial reductases. The formazan concentration can be determined spectrophotometrically. The measured absorption is an indicator of cell viability. Cell lines (MCF-12F, MCF-7 and MDA-MB-231) were used in the experiments. Cells were plated at a density of 1 × 10^3 cells/100 µL in each well of 96-well microplates and allowed to adhere for 24 h before treatment with test compounds. A concentration range from 4 to 1000 μM was applied for 72 h. The formazan absorption was registered using a microplate reader at λ = 540 nm. Antiproliferative activities were expressed as IC50 values (concentrations required for 50% inhibition of cell growth).

[5] = test system: MCF-7 cells; assay: MTT antiproliferative assay, MCF-7; format: cell-based, human; conditions: for IC50: MTT, 72 h, read-out: Mean IC50 ± SD, MCF-7; for SI (Selectivity Index), MCF-7: SI = IC50 MCF-12F/IC50 tumor cells
Procedure: as §3, §5

[6] = test system: MDA-MB-231 cells; assay: MTT antiproliferative assay, MDA-MB-231; format: cell-based, human; conditions: for IC50: MTT, 72 h, read-out: Mean IC50 ± SD, MDA-MB-231; for SI (Selectivity Index), MDA-MB-231: SI = IC50 MCF-12F/IC50 tumor cells
Procedure: as §3, §5

[7] = test system: Arthrobacter oxydans NBIMCC 9333; format: cell-based; conditions: for Inhibition effect, A. oxydans 9333: zone of peptide over zone of antibiotic x 100; for Inhibition zone, A. oxydans 9333: 20 µL per disc, 24 h
Procedure: as §1, §2

[8] = test system: Bacillus subtilis NBIMCC 3562; format: cell-based; conditions: for Inhibition effect, B. subtilis 3562: zone of peptide over zone of antibiotic x 100; for Inhibition zone, B. subtilis 3562: 20 µL per disc, 24 h
Procedure: as §1, §2

[9] = test system: Escherichia coli NBIMCC 8785; format: cell-based; conditions: for Inhibition zone, E. coli 8785: 20 µL per disc, 24 h
Procedure: as §1, §2

[10] = test system: Pseudomonas aeruginosa NBIMCC 3700; format: cell-based; conditions: for Inhibition effect, P. aeruginosa 3700: zone of peptide over zone of antibiotic x 100; for Inhibition zone, P. aeruginosa 3700: 20 µL per disc, 24 h
Procedure: as §1, §2

[11] = test system: Arthrobacter oxydans NBIMCC 9333; format: cell-based; conditions: 24 h
Procedure: as §1
(§6) The minimal inhibitory concentration (MIC) of the peptides was determined using the broth dilution method. Stock solutions of the peptides with a concentration of 10 mg/mL in 10% EtOH/H2O were prepared. Suspensions of the bacteria in the corresponding media were added to 96-well U-shaped bottom polystyrene plates (Deltalab S.L., Spain) and exposed to the peptide in the concentration range from 0 to 320 µg/mL, and a 10% EtOH/H2O control, diluted using the same scheme as the peptides, was also used. The plates were then incubated under aerobic conditions at the corresponding temperature for 24 h. The MIC (µg/mL) was assumed as the lowest concentration of the antimicrobial, where there was visible inhibition of the strain. The absorbance was measured at 630 nm (Microplate reader PKL PPC 142, Paramedical srl, Salerno, Italy). To determine the minimal bactericidal concentration (MBC) and minimal fungicidal concentration (MFC), 10 μL from concentrations greater than or equal to the MIC was placed on the corresponding solid nutrient medium. The Petri dishes were then incubated at 30 or 37 °C for 24 h. All experiments were conducted in a triplicate.

[12] = test system: Bacillus subtilis NBIMCC 3562; format: cell-based; conditions: broth dilution, 0 to 320 µg/mL, 24 h; NI = no inhibition monitored
Procedure: as §1, §6

[13] = 10 µg/disk, positive control on the plate of the peptide of that line

| Compound | CC50 [2] | CC50 at 24 h [2] | PIF (photo irritation factor) [3] | IC50 [4] | IC50 [5] | SI (Selectivity Index), MCF-7 [5] | IC50 [6] | SI (Selectivity Index), MDA-MB-231 [6] | Inhibition effect, A. oxydans 9333 ([7]; 1.4 mg/mL) | Inhibition effect, A. oxydans 9333 ([7]; 10 mg/mL) | Inhibition zone, A. oxydans 9333 ([7]; peptide 1.4 mg/mL) | Inhibition zone, A. oxydans 9333 ([7]; peptide 10 mg/mL) | Inhibition effect, B. subtilis 3562 ([8]; 1.4 mg/mL) | Inhibition effect, B. subtilis 3562 ([8]; 10 mg/mL) | Inhibition zone, B. subtilis 3562 ([8]; peptide 1.4 mg/mL) | Inhibition zone, B. subtilis 3562 ([8]; peptide 10 mg/mL) | Inhibition zone, C. albicans 74 ([1]; peptide 1.4 mg/mL) | Inhibition zone, C. albicans 74 ([1]; peptide 10 mg/mL) | Inhibition zone, E. coli 8785 ([9]; peptide 1.4 mg/mL) | Inhibition zone, E. coli 8785 ([9]; peptide 10 mg/mL) | other results |
| --- | --- | --- | --- | --- | --- | --- | --- | --- | --- | --- | --- | --- | --- | --- | --- | --- | --- | --- | --- | --- | --- |
| CCC(C)n1ncn(-c2ccc(N3CCN(c4ccc(OCC5COC(Cn6cncn6)(c6ccc(Cl)cc6Cl)O5)cc4)CC3)cc2)c1=O (stereo not shown) [Itraconazole, reference compound] |  |  |  |  |  |  |  |  |  |  |  |  |  |  |  |  |  |  |  |  | Inhibition zone, C. albicans 74, antibiotic control [1, 13]: 15.0 mm and 14.0 mm |
| CC[C@H](C)[C@H](NC(=O)CNC(=O)[C@H](CO)NC(=O)[C@H](CC(C)C)NC(=O)[C@@H](NC(=O)[C@H](CCCNC(N)=O)NC(=O)CNC(=O)[C@@H](NC(=O)[C@H](CC(C)C)NC(=O)[C@@H]1CCCN1C(=O)[C@H](CC(C)C)NC(=O)[C@@H](N)Cc1ccccc1)[C@@H](C)CC)C(C)C)C(=O)N[C@@H](CC(C)C)C(N)=O [DTCit, FLPLIG-Cit-VLSGIL-NH2] (H-FLPLIG[Cit]VLSGIL-NH2; N-terminus assumed) | 356 ± 7.64 µM | 332 ± 12.3 µM | 1.07 | 301 ± 10.5 µM | 150 ± 6.94 µM | 2.01 | 335 ± 4.37 µM | 0.90 | 0.0% | 0.0% | 0.0 mm | 0.0 mm | 0.0% | 0.0% | 0.0 mm | 0.0 mm | 0.0 mm | 0.0 mm | 0.0 mm | 0.0 mm | Inhibition effect, P. aeruginosa 3700 ([10]; 1.4 mg/mL): 0.0%; Inhibition effect, P. aeruginosa 3700 ([10]; 10 mg/mL): 0.0%; Inhibition zone, P. aeruginosa 3700 ([10]; peptide 1.4 mg/mL): 0.0 mm; Inhibition zone, P. aeruginosa 3700 ([10]; peptide 10 mg/mL): 0.0 mm; MIC, A. oxydans 9333 ([11]; broth dilution, 0 to 320 µg/mL, NI = no inhibition monitored): 160 µg/mL (≈ 114 µM); MBC, A. oxydans 9333 ([11]; plated from concentrations ≥ MIC): 160 µg/mL (≈ 114 µM) |
| CC[C@H](C)[C@H](NC(=O)CNC(=O)[C@H](CO)NC(=O)[C@H](CC(C)C)NC(=O)[C@@H](NC(=O)[C@H](CN)NC(=O)CNC(=O)[C@@H](NC(=O)[C@H](CC(C)C)NC(=O)[C@@H]1CCCN1C(=O)[C@H](CC(C)C)NC(=O)[C@@H](N)Cc1ccccc1)[C@@H](C)CC)C(C)C)C(=O)N[C@@H](CC(C)C)C(N)=O [DTDap, FLPLIG-Dap-VLSGIL-NH2] (H-FLPLIG[Dap]VLSGIL-NH2; N-terminus assumed) | 924 ± 21.6 µM | 933 ± 20.7 µM | 0.99 | 630 ± 9.97 µM | 473 ± 16.2 µM | 1.33 | 581 ± 17.5 µM | 1.09 | 0.0% | 53.0% | 0.0 mm | 9.8 ± 0.3 mm | 0.0% | 0.0% | 0.0 mm | 0.0 mm | 0.0 mm | 0.0 mm | 0.0 mm | 0.0 mm | Inhibition effect, P. aeruginosa 3700 ([10]; 1.4 mg/mL): 0.0%; Inhibition effect, P. aeruginosa 3700 ([10]; 10 mg/mL): 51.8%; Inhibition zone, P. aeruginosa 3700 ([10]; peptide 1.4 mg/mL): 0.0 mm; Inhibition zone, P. aeruginosa 3700 ([10]; peptide 10 mg/mL): 8.8 ± 0.8 mm; MIC, B. subtilis 3562 [12]: 320 µg/mL (≈ 241 µM) |
| O=C(N[C@H](CO)[C@H](O)c1ccc([N+](=O)[O-])cc1)C(Cl)Cl [Chloramphenicol, reference compound] |  |  |  |  |  |  |  |  |  |  |  |  |  |  |  |  |  |  |  |  | Inhibition zone, B. subtilis 3562, antibiotic control ([8]; 30 µg/disk, positive control on the plate of the peptide of that line): 26.0 mm and 25.0 mm |
| CNC(C)C1CCC(N)C(OC2C(N)CC(N)C(OC3OCC(C)(O)C(NC)C3O)C2O)O1 (stereo not shown) [Gentamicin, reference compound] |  |  |  |  |  |  |  |  |  |  |  |  |  |  |  |  |  |  |  |  | Inhibition zone, E. coli 8785, antibiotic control [9, 13]: 18.0 mm; Inhibition zone, P. aeruginosa 3700, antibiotic control [10, 13]: 17.0 mm and 16.0 mm |

From PMC11207040, “Synthesis and Biological Studies of New Temporin A Analogs Containing Unnatural Amino Acids in Position 7” (Pharmaceutics, 2024)
